The results in this text go back to ChEMBL document CHEMBL1201862, “PubChem BioAssay data set” (2004).

Each structure is given as a SMILES string.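 Dose response: 5 concentrations. Exposure: 48 h. Format: 96-well plates. Endpoint: linear interpolation; highest concentration if not reached. GI50: concentration for 50% inhibition of growth.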 Activity calls are given as the source filed them. Rule as the data show it: active = GI50 up to about 1.1 µM and inactive = higher.

Some test systems named below: CAKI-1; SK-MEL-28; UACC-62; SN12C; SF-539; ACHN; SK-MEL-2; SR; TK-10; SK-OV-3; U-251; LOX IMVI; SF-295; HCC 2998; MOLT-4; NCI/ADR-RES; MCF7; Hs-578T; MDA-MB-231.
Common to all, as to assay: DTP human tumour cell line panel, 48 h

Usually GI50 stands for the concentration that inhibits growth by half. As to `O=[N+]([O-])c1cccnc1S(=O)(=O)c1ccccc1`, the GI50 was 2.9 µM (inactive) in the experiment on CAKI-1; 20 µM (inactive) with SK-MEL-28; 11.6 µM (inactive) in the experiment on UACC-62; 9.2 µM (inactive) in the experiment with SN12C; 11.3 µM (inactive) in the experiment on SF-539; 4.83 µM (inactive) with ACHN. For the same molecule, the GI50 was 16.2 µM (inactive) in the experiment with SK-MEL-2; 3.99 µM (inactive) in the experiment on SR; 10 µM (inactive) in the experiment with TK-10; 20.5 µM (inactive) in the experiment with SK-OV-3; 8.95 µM (inactive) in the experiment with U-251; 4.46 µM (inactive) in the experiment on LOX IMVI. The figures for the GI50 in the experiment with SF-295, with HCC 2998 and in the experiment with MOLT-4 were 18.5 µM (inactive), 13.6 µM (inactive) and 2.84 µM (inactive), respectively.
Take `C/C(=C\CNc1ncnc2c1ncn2C1CCCCO1)COP(=O)(O)O` (centres undefined): the GI50 in the experiment with CAKI-1, in the experiment with SK-MEL-28, in the experiment on UACC-62, in the experiment with SN12C, with SF-539 and with ACHN was > 100 µM (inactive) in each case. Besides, the GI50 in the experiment on SK-MEL-2, in the experiment with SR, in the experiment with TK-10, with SK-OV-3, with U-251 and in the experiment with LOX IMVI was > 100 µM (inactive) throughout. Moreover, the GI50 with SF-295, with HCC 2998 and in the experiment on MOLT-4 was > 100 µM (inactive) in each case.
`CC(C)(C)c1ccc2c(c1)C(O)(c1ccccc1)c1cc(C(C)(C)C)ccc1C2(O)C(F)(F)F` (centres undefined): the GI50 with CAKI-1 is 1.74 µM (inactive); in the experiment on SK-MEL-28, 2.09 µM (inactive); in the experiment on UACC-62 it was 1.63 µM (inactive); with SN12C, 1.76 µM (inactive); in the experiment with SF-539 it was 1.74 µM (inactive); in the experiment on ACHN, 2.14 µM (inactive). Moreover, the GI50 in the experiment with SK-MEL-2 is 1.76 µM (inactive); with SR, 2.13 µM (inactive); in the experiment with TK-10, 3.98 µM (inactive); in the experiment on SK-OV-3, 3.24 µM (inactive); in the experiment with U-251, 1.81 µM (inactive); in the experiment on LOX IMVI, 1.82 µM (inactive). Besides, the values for the GI50 with SF-295, in the experiment on HCC 2998 and with MOLT-4 were 1.43 µM (inactive), 2.1 µM (inactive) and 1.77 µM (inactive), respectively.
For the molecule `COc1ccc2c(c1)N1CCc3cc(OC)c(OC)cc3C1C2` (centres undefined), the GI50 is 53.2 µM (inactive) in the experiment with CAKI-1; 89.1 µM (inactive) with SK-MEL-28; 23.6 µM (inactive) in the experiment with UACC-62; 51.9 µM (inactive) in the experiment on SN12C; > 100 µM (inactive) in the experiment with SF-539; 53 µM (inactive) in the experiment with ACHN. The GI50 in the experiment on SK-MEL-2 was 87.5 µM (inactive); in the experiment on SR, 34.2 µM (inactive); in the experiment with TK-10, > 100 µM (inactive); in the experiment with SK-OV-3, > 100 µM (inactive); with U-251 it was > 100 µM (inactive); in the experiment with LOX IMVI, 98.6 µM (inactive). The GI50 in the experiment with SF-295 was 88.7 µM (inactive); with HCC 2998, 51.1 µM (inactive); in the experiment on MOLT-4, 26 µM (inactive).
Take `O=c1[nH]c(=O)n(C2CC(O)C(CO)O2)cc1C#Cc1ccc(F)cc1` (centres undefined): the GI50 in the experiment with CAKI-1, in the experiment with SK-MEL-28, with UACC-62, in the experiment with SN12C, with SF-539 and in the experiment on ACHN was > 100 µM (inactive) each time. Also, the GI50 in the experiment on SK-MEL-2, with SR, with SK-OV-3, with U-251, with LOX IMVI and in the experiment on SF-295 was > 100 µM (inactive) throughout. The GI50 in the experiment with HCC 2998 and in the experiment on MOLT-4 was > 100 µM (inactive) throughout.
On to `Cc1cccc(/C=C2/C(=O)Nc3ccccc32)n1`, for which the GI50 with CAKI-1 was 11.9 µM (inactive); with NCI/ADR-RES, 14.6 µM (inactive); with SK-MEL-28, 24.2 µM (inactive); in the experiment on MCF7, 5.79 µM (inactive); with SF-539 it was 20.5 µM (inactive); in the experiment with ACHN, 10.3 µM (inactive). Besides, the GI50 in the experiment on SK-MEL-2 is 12.8 µM (inactive); in the experiment on TK-10 it was 15.7 µM (inactive); with SK-OV-3 it was 18.1 µM (inactive); with U-251, 15.7 µM (inactive); in the experiment on Hs-578T, 24.2 µM (inactive); in the experiment with SF-295, 17.9 µM (inactive). Moreover, the GI50 in the experiment with HCC 2998 was 10.6 µM (inactive); in the experiment with MOLT-4 it was 7.5 µM (inactive).
Take `O=C(O)CCC(NC(=O)c1ccc(Oc2nc3ccccc3nc2C(=O)O)cc1)C(=O)O` (centres undefined): the GI50 with CAKI-1, with NCI/ADR-RES, in the experiment with SK-MEL-28, in the experiment with UACC-62, in the experiment on ACHN and with SK-MEL-2 was > 100 µM (inactive) throughout. Also, the GI50 in the experiment with SR, in the experiment on TK-10, with SK-OV-3, with U-251, in the experiment with LOX IMVI and in the experiment with MDA-MB-231 was > 100 µM (inactive) throughout. For the same molecule, the GI50 in the experiment with Hs-578T, in the experiment on SF-295, in the experiment with HCC 2998 and with MOLT-4 was > 100 µM (inactive) in each case.
For the molecule `C[n+]1c2ccccc2cc2c(CNC(CCCNC(=N)N)C(=O)O)cccc21` (centres undefined), the GI50 with CAKI-1 was 0.518 µM (active); with SK-MEL-28, 1.34 µM (inactive); in the experiment on UACC-62, 0.643 µM (active); in the experiment on SN12C, 0.65 µM (active); in the experiment on SF-539, 1.23 µM (inactive); in the experiment on ACHN it was 0.594 µM (active). For the same molecule, the GI50 was 4.03 µM (inactive) in the experiment with SK-MEL-2; 0.184 µM (active) in the experiment with SR; 0.67 µM (active) in the experiment on TK-10; 1.99 µM (inactive) in the experiment with SK-OV-3; 1.61 µM (inactive) in the experiment with U-251; 0.493 µM (active) with LOX IMVI. For the same molecule, the GI50 is 3.17 µM (inactive) in the experiment with SF-295, 2.24 µM (inactive) with HCC 2998 and 0.208 µM (active) in the experiment on MOLT-4.
As to `CCOC(=O)c1nc(C)oc1C(F)(F)F`, the GI50 in the experiment with CAKI-1, in the experiment with SK-MEL-28, in the experiment with UACC-62, in the experiment with SN12C, in the experiment on SF-539 and with ACHN was > 100 µM (inactive) in each case. Further, the GI50 in the experiment on SK-MEL-2, in the experiment with SR, with TK-10, in the experiment on SK-OV-3, in the experiment with U-251 and with LOX IMVI was > 100 µM (inactive) throughout. Moreover, the GI50 in the experiment on SF-295, in the experiment with HCC 2998 and in the experiment with MOLT-4 was > 100 µM (inactive) each time.
